Measured values: patent publication US20140057841A1, “HUMAN INSULIN AND ANALOG CONJUGATE THEREOF” (Chongqing Fagen Biomedical Inc., priority 2011, published 2014)
Where two headings read alike, the source gives them in different places.

Experiments:
[1] = test system: Type 1 diabetes model of KunMing mice; assay: Blood sugar lowering in mice Type 1 diabetes model; format: in vivo; settings: subcutaneous 0.25 mg/kg, STZ mice; for time the blood sugar lowering effect may sustain: empty stomach blood sugar
Description: 70 healthy KunMing male SPF mice (purchased from the Third Military Medical Univ., China) with body weight of 25-30 g were fed with water only and no food for 14 hours, and then subject to 120 mg/kg of rapid intraperitoneal injection of streptozotocin (STZ) solution (4.8 mg/ml) that was prepared with citric acid- trisodium citrate buffer, to establish a Type 1 diabetes model. After the injection, the mice were immediately fed with food and water. After 48 hours of model establishing, blood was sampled from caudal vein, and blood sugar value was detected with glucometer (Bayer's Fast Glucometer) after fasting for 2 hours, wherein a blood sugar value of >11.1 mmol/L indicates successful modeling. […] Groups B, C, and D were respectively subject to subcutaneous administration by a dosage of 0.25 mg/kg, and group A was injected with isovolumetric solvent. Before administration (i.e., 0 hour) and after 1, 2, 6, 10, 15, 18, and 24 hours of administration, blood was sampled from caudal vein for the detection of empty stomach (fasting for 2 hours) blood sugar value. The average blood sugar value was calculated and time activity curve was made (FIG. 4).
The average blood sugar value was calculated and time activity curve was made (FIG. 5).

[2] = test system: Type 1 diabetes model of New Zealand albino rabbits; assay: Blood sugar lowering experiment on Type 1 diabetes model (IDDM) rabbits; format: in vivo; settings: subcutaneous 0.2 mg/kg; for hypoglycemic activity: rabbit Type 1 diabetes model; for time the blood sugar lowering effect may sustain: tetraoxypyrimidine rabbits, empty stomach blood sugar
Description: 40 male New Zealand albino rabbits (purchased from the Third Military Medical Univ., China) with body weight of 2-3 kg were fed with water only and no food for 24 hours, and then subject to 5 ml/kg of ear vein single injection of tetraoxypyrimidine solution (with concentration of 20 mg/ml) to establish models. After the injection, the rabbits were immediately fed with food and water. After 3 days of model establishing, blood was sampled every day from ear vein after fasting for 6 hours, and blood sugar value was detected with glucometer, wherein a blood sugar value of >11.1 mmol/L indicates successful modeling. […] Groups B, C, and D were respectively subject to subcutaneous administration by a dosage of 0.2 mg/kg, and group A was injected with isovolumetric solvent. Before administration (i.e., 0 hour) and after 1, 2, 4, 8, 12, 24, 36, 48, 60, 72, 84, and 96 hours of administration, blood was sampled from ear vein for the detection of empty stomach (fasting for 6 hours) blood sugar value (Fast Glucometer, Bayer). The average blood sugar value was calculated and time activity curve was made (FIG. 6).
The average blood sugar value was calculated and time activity curve was made (FIG. 7).

[3] = test system: Beagle dog Type 1 diabetes model; assay: Blood sugar lowering experiment of DesB30-20 k conjugate on Beagle dog Type 1 diabetes model; format: in vivo, Beagle dogs
Description: 20 healthy Beagle dogs (purchased from the Third Military Medical Univ., China) with body weight of 5-8 kg were fed with water only and no food for 24 hours, and then subject to foreleg subcutaneous vein injection of tetraoxypyrimidine solution (200 mg/ml) and STZ solution (120 mg/ml), with respective dosage of 50 mg/kg and 30 mg/kg, to establish Type 1 diabetes models. After the injection, the dogs were immediately fed with food and water. After 72 hours of model establishing, successful modeling was indicated by the signs of polyphagia, polydipsia, polyuria, lose weight, and blood sugar value of >11.1 mmol/L. 12 modeled dogs were randomly divided into 3 groups, 4 for each group (group A, control, group B, administration by 0.05 mg/kg, and group C, administration by 0.10 mg/kg), and subject to subcutaneous administration for one time. After 0, 2, 6, 12, 18, 24, 36, 48, 72, 96, and 120 hours of administration, blood was sampled from hindlimb vein for the detection of empty stomach (fasting for 6 hours) blood sugar value (GOD-POD method). The average blood sugar value was calculated and single administration time activity curve was made (FIG. 8). […] Then, the model animals were tested with multiple times of subcutaneous administration, with an interval of 72 hours (with a dosage of 0.05 mg/kg, 0.10 mg/kg, or isovolumetric solvent) for 6 times. From Day 1 to Day 21 after the administration, empty stomach blood sugar value was detected every three days, and blood was sampled after the last administration for pharmacokinetics experiments. […] The durations of hypoglycemic activity for single and multiple administrations are basicly the same, i.e., 72 hours. During the multiple administrations, the empty stomach blood sugar value of animals in administration groups were kept in average with about 5 mmol/L, whereas the empty stomach blood sugar value of animals in control group were kept in average with about 25 mmol/L.

[4] = in human body; cited from earlier work
[5] = in animals; cited from earlier work

Substance: DesB30-5K: DesB30 recombinant human insulin coupled at the ε-amino group of Lys B29 to 5K mPEG-SPA via amide bond
- hypoglycemic activity [1]: significant hypoglycemic activity
- time the blood sugar lowering effect may sustain [1]: about 8 hours
- hypoglycemic activity [2]: significant hypoglycemic activity
- time the blood sugar lowering effect may sustain [2]: about 15 hours

Substance: DesB30-10K: DesB30 recombinant human insulin coupled at the ε-amino group of Lys B29 to 10K mPEG-SPA via amide bond
- hypoglycemic activity [1]: significant hypoglycemic activity
- time the blood sugar lowering effect may sustain [1]: about 12 hours
- hypoglycemic activity [2]: significant hypoglycemic activity
- time the blood sugar lowering effect may sustain [2]: about 30 hours

Substance: DesB30-20K: DesB30 recombinant human insulin coupled at the ε-amino group of Lys B29 to 20K mPEG-SPA via amide bond
- hypoglycemic activity [1]: significant hypoglycemic activity
- time the blood sugar lowering effect may sustain [1]: about 18 hours
- hypoglycemic activity [2]: significant hypoglycemic activity
- time the blood sugar lowering effect may sustain [2]: about 55 hours
- hypoglycemic activity ([3]; Beagle dogs Type 1 diabetes model, 0.05 and 0.10 mg/kg): significant hypoglycemic activity
- average empty stomach blood sugar value during multiple administrations ([3]; administration groups (0.05 or 0.10 mg/kg s.c., every 72 hours, 6 times), control about 25 mmol/L): about 5 mmol/L
- time blood sugar is effectively lowered ([3]; single subcutaneous administration, 0.10 mg/kg): 72 h
- duration of hypoglycemic activity for single and multiple administrations ([3]; single, and multiple subcutaneous administrations (interval 72 hours, 6 times)): 72 h

Substance: Ins-5K: recombinant human insulin conjugate with 5K mPEG-SPA at Lys B29, prepared as in Example 2
- time the blood sugar lowering effect may sustain [1]: about 8 hours
- time the blood sugar lowering effect may sustain [2]: about 15 hours

Substance: Ins-10K: recombinant human insulin conjugate with 10K mPEG-SPA at Lys B29, prepared as in Example 3
- time the blood sugar lowering effect may sustain [1]: about 12 hours
- time the blood sugar lowering effect may sustain [2]: about 35 hours

Substance: Ins-20K: recombinant human insulin conjugate with 20K mPEG-SPA at Lys B29, prepared as in Example 4
- time the blood sugar lowering effect may sustain [1]: about 18 hours
- time the blood sugar lowering effect may sustain [2]: about 55 hours

Substance: insulin detemir
- duration of activity [4]: 24 h
- duration of activity [5]: 12 h
